From patent US12239643B2, “Therapeutic agent for inflammatory diseases, autoimmune diseases, fibrotic diseases, and cancer diseases” (MEIJI SEIKA PHARMA CO., LTD., priority 2018, dated 2025)
Where two headings read alike, the source gives them in different places.

Tests used:
TNFα [1] = test: Cytokine suppression using whole human blood: TNFα (lipopolysaccharide stimulus); assay type: cell-based; conditions: Homo sapiens, human whole blood; read-out: TNFα Inhibitory Activity, Human Whole Blood (Test Example 3)
Procedure: The test compound dissolved in dimethyl sulfoxide was added to a 96-well plate, and RPMI-1640 medium and human peripheral blood containing sodium heparin were added, followed by culture at 37° C. under 5% CO2 for 1 hour. A medium containing only dimethyl sulfoxide instead of the test compound was added to the control well. To each well, lipopolysaccharide (final concentration 10 ng/mL) as a TNFα production stimulant, or phytohaemagglutinin (final concentration 20 μg/mL) as an IL-17A production stimulant, or CytoStim reagent ( 1/100 concentration) and CD28 antibody (final concentration 2.5 ng/mL) as an IL-4 production stimulant and an IL-5 production stimulant were added, followed by culture at 37° C. under 5% CO2. The culture was carried out for about 18 hours for the evaluation of the amount of TNFα, and for about 48 hours for the evaluation of the amounts of IL-17A, IL-4, and IL-5.
After collecting the culture supernatant after culturing, the amount of each cytokine was measured by the sandwich ELISA method. The cytokine production suppression rate (inhibition rate) by the test compound was calculated by the following formula from the cytokine production amount when the test compound was added, with the cytokine production amount for the control well as 100%. Inhibition Rate={1−(Cytokine Amount at Addition of Each Test Compound)/(Cytokine Amount for Control Well)}×100
In addition, the cytokine inhibitory activity (concentration for the inhibition rate of 50%) of the test compound was calculated from the inhibition curves based on the inhibition rates for various concentrations of the test compound.
The measurement results obtained by measuring the TNFα inhibitory activity and IL-5 inhibitory activity (50% inhibitory concentration) of the test compounds by the above method were evaluated in accordance with the following evaluated basis; A: less than 100 nM, B: 100 nM or more and less than 500 nM, and C: 500 nM or more. In addition, the measurement results obtained by measuring the IL-17A inhibitory activity and IL-4 inhibitory activity (50% inhibitory concentration) of the test compounds were evaluated in accordance with the following evaluated basis; A: less than 500 nM, B: 500 nM or more and less than 5000 nM, and C: 5000 nM or more.

[2] = Hepatic metabolic stability (rat liver microsome method); assay type: in vitro ADME; conditions: rat liver microsomes 0.5 mg/mL, test substance 1 μM, NADPH 1 mM, 37° C., 30 minutes
Method in brief: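 Rat liver microsomes (0.5 mg/mL final) with test compound (1 μM final) in 100 mM potassium phosphate pH 7.4, 37° C; reaction started with NADPH (1 mM final) after 5 min preincubation. Acetonitrile stop at 0 and 30 min, LC-MS quantitation; % remaining = 30 min/0 min ×100, graded A ≥75%, B 60–<75%, C 45–<60%, D <45%.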

[3] = tested on: oxazolone-induced auricle edema, BALB/c mice; test: Mouse delayed type hypersensitivity (DTH) model (topical); assay type: in vivo; conditions: 20 μL applied to auricle, 24 hours after application
Procedure: Evaluation was carried out using female BALB/c mice (7 to 8 weeks of age). First, the hair of the abdomen of the mice was treated with a hair clipper, and then 150 μL of a 3% oxazolone acetone/ethanol solution was applied to the abdomen as a hapten. Five days later, 20 μL/ear of a 1% oxazolone.acetone/ethanol solution was applied to the outer surface of the auricle of both ears of the mouse to induce inflammation. Thirty minutes after the start of inflammation induction, 20 μL of the test compound dissolved in an acetone/ethanol solution was applied to the auricle. A 1% oxazolone was not applied to the blank. The control was one in which 1% oxazolone was applied and only an acetone/ethanol solution was applied without using the test compound. The auricle thickness 24 hours after application of the test compound was measured with a dial thickness gauge, and the value obtained by subtracting the blank value was used to calculate the edema suppression rate by the following formula. Edema Suppression Rate (%)={1−(Value at Addition of Each Test Compound−Blank Value)/(Control Value−Blank Value)}×100 The measurement results obtained by measuring the edema suppression rate at the time of topical administration of each test compound by the above method were evaluated in accordance with the following evaluated basis; A: 60% or more, B: 40% or more and less than 60%, and C: less than 40%.

[4] = tested on: oxazolone-induced auricle edema, BALB/c mice; test: Hapten repeated application mouse chronic dermatitis model (oral, topical); assay type: in vivo; conditions: for Mouse Chronic Dermatitis Model (Test Example 8), Topical: edema suppression rate: 20 μL of 0.3 to 3% solution once or twice a day for 10 days
Method in brief: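 Female BALB/c mice aged 7–8 weeks were sensitised abdominally with 3% oxazolone, then challenged on both ears with 1% oxazolone. From week 1, test compound was given for 10 days orally at 0.3–10 mg/kg twice daily in 0.5% MC, or topically at 0.3–3% once or twice daily. Ear-thickness change measured by dial gauge gave edema suppression versus vehicle control.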

PDE4 = test: Evaluation of PDE4 inhibitory activity, scintillation proximity assay; assay type: biochemical
Method in brief: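 SPA with [2,8-3H]-cAMP and diluted PDE4 enzyme preparation in 50 mM Tris-HCl pH 7.4, 8.3 mM MgCl2, 1.7 mM EGTA, 3 mg/mL BSA, 120 min at room temperature. Product captured on ZnSO4-containing YSi-SPA beads, scintillation counted; IC50 from inhibition curves vs DMSO control and no-enzyme blank.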

TNFα [5] = test: Cytokine suppression using human peripheral blood mononuclear cells: TNFα; assay type: cell-based; conditions: human PBMC, lipopolysaccharide 1 ng/mL; read-out: TNFα Inhibitory Activity, Human PBMC (Test Example 4)
Procedure: First, peripheral blood mononuclear cells (PBMC) were separated from whole blood by specific gravity centrifugation. Then, the isolated peripheral blood mononuclear cells were added to RPMI-1640 medium (containing 10% fetal bovine serum, penicillin, streptomycin, L-glutamine, and 2-mercaptoethanol), and cultured in a 96-well plate at 37° C. under 5% CO2 for 0 to 1 hour. The test compound dissolved in dimethyl sulfoxide was added to each well, followed by further culture at 37° C. under 5% CO2 for 1 hour. A medium containing only dimethyl sulfoxide instead of the test compound was added to the control well. To each well, lipopolysaccharide (final concentration 1 ng/mL) as a TNFα production stimulant and an IL-23 production stimulant, or concanavalin A (final concentration 20 μg/mL) as an IL-17A production stimulant was added, followed by culture at 37° C. under 5% CO2. In addition, as IL-4 production stimulus, IL-5 production stimulus, and IL-13 production stimulus, PBMC was seeded on a 96-well plate previously coated with a CD3 antibody (final concentration 3 μg/mL), and a CD28 antibody (final concentration 5 ng/mL) was added. The culture was carried out for about 18 hours for the evaluation of the amounts of TNFα and IL-23, and about 48 hours for the evaluation of the amounts of IL-17A, IL-4, IL-5, and IL-13. After collecting the culture supernatant after culturing, the amount of each cytokine was measured by the sandwich ELISA method in the same manner as in Test Example 3, and the cytokine production suppression rate (inhibition rate) and the cytokine inhibitory activity (concentration for the inhibition rate of 50%) of each test compound were calculated.
The measurement results obtained by measuring the TNFα inhibitory activity and IL-5 inhibitory activity (50% inhibitory concentration) of the test compounds by the above method were evaluated in accordance with the following evaluated basis; A: less than 10 nM, B: 10 nM or more and less than 100 nM, and C: 100 nM or more. In addition, the measurement results obtained by measuring the IL-17A inhibitory activity, IL-23 inhibitory activity, IL-4 inhibitory activity, and IL-13 inhibitory activity (50% inhibitory concentration) of the test compounds were evaluated in accordance with the following evaluated basis; A: less than 500 nM, B: 500 nM or more and less than 5000 nM, and C: 5000 nM or more.

[6] = tested on: substance P-induced pruritus behavior, ICR mice; test: Mouse pruritus model; assay type: in vivo; conditions: oral, substance P intradermally 2 hours after administration
Procedure: Evaluation was carried out using male ICR mice (5 to 7 weeks of age). A micro magnet was embedded under the skin of both hind limbs of the mice in advance, and the hair on the back of the mouse neck was shaved. On the day of the test, the test compound was dissolved or suspended in 0.5% w/v methylcellulose (0.5% MC) and orally administered. Two hours after administration of the test compound, 50 μL of 300 nM substance P dissolved in saline was intradermally administered to the back of the mouse neck. The blank was a non-pruritus-induced group orally administered with 0.5% MC instead of the test compound and intradermally administered with saline instead of substance P, and the pruritus induction control was a group orally administered with 0.5% MC instead of the test compound. The pruritus measurement system for small animals, MicroAct II, automatically measured pruritus behavior for 30 minutes immediately after intradermal administration.

[7] = finer grading of compounds rated A in Evaluation 1, read-out: PDE4 Inhibitory Activity (Evaluation 2)

Row | SMILES | IC50 (TNFα [1]) [nM] | Residual ratio (% remaining for 30-minute reaction) [2] | Mouse DTH Model (Test Example 11), Topical: edema suppression rate [3] | Mouse Chronic Dermatitis Model (Test Example 8), Oral: edema suppression rate ([4]; oral, 0.3 to 10 mg/kg twice a day for 10 days) | Mouse Chronic Dermatitis Model (Test Example 8), Topical: edema suppression rate [4] | IC50 (PDE4; [7]) [nM] | IC50 (PDE4; scintillation proximity assay, read-out: PDE4 Inhibitory Activity (Evaluation 1; concentration for the inhibition rate of 50%)) [nM] | PDE4 inhibitory activity (PDE4; summary in words of Tables 57 to 69) | IC50 (TNFα [5]) [nM] | scratching behavior (pruritus behavior for 30 minutes) [6]
1 | CC(O)C(F)(F)Oc1ccc(-c2nccs2)c2oc(N3CC4CC(C3)N4)nc12 (single isomer, unassigned) [Example 251, 1-((2-(3,6-Diazabicyclo[3.1.1]heptan-3-yl)-7-(thiazol-2-yl)benzo[d]oxazol-4-yl)oxy)-1,1-difluoropropan-2-ol] | < 100 | A (A: a % remaining rate of 75% or more) | B (B: 40% or more and less than 60%) | B (B: 40% or more and less than 70%) | A (A: 100% or more) | ≤ 1 | < 100 | particularly excellent |  | 
2 | N#Cc1ccc(Oc2ccc3c(c2)COB3O)cc1 [crisaborole, reference compound] |  |  | C (C: less than 40%) |  | C (C: less than 70%) | > 100 |  |  | > 100 | 
3 | CC(C)(C(=O)O)c1ccc(C(O)CCCN2CCC(C(O)(c3ccccc3)c3ccccc3)CC2)cc1 (stereo not shown) [fexofenadine, reference compound] |  |  |  |  |  |  |  |  |  | did not suppress scratching behavior
